US20050032822A1, “Dithiocarbamate derivatives and their use as antibacterial agents” (priority 2001, published 2005)
≈ marks a conversion by molar mass, not a printed value.

Key:
Type in all cases: cell-based
Details in all cases: Mueller-Hinton broth
M. vaccae IMET 1010670 = assay: MIC, micro broth dilution, M. vaccae IMET 10670
[1] = system: multiresistent staphylococci (MRSA) strain 994/93; assay: MIC, micro broth dilution, MRSA 994/93
[2] = system: Mycobacterium smegmatis SG 987; assay: MIC, micro broth dilution, M. smegmatis SG 987
M. fortuitum B = assay: MIC, micro broth dilution, M. fortuitum B
[3] = system: multiresistent staphylococci (MRSA) strain 134/93; assay: MIC, micro broth dilution, MRSA 134/93
M aureum SB66 = assay: MIC, micro broth dilution, M. aureum SB66

| Molecule | minimal inhibitory concentrations MIC, 10670 (M. vaccae IMET 1010670) [µg/mL] | minimal inhibitory concentrations MIC, 994/93 [1] [µg/mL] | minimal inhibitory concentrations MIC, SG 987 [2] [µg/mL] | minimal inhibitory concentrations MIC, M. fort. (M. fortuitum B) [µg/mL] | minimal inhibitory concentrations MIC, 134/93 [3] [µg/mL] | minimal inhibitory concentrations MIC, SB 66 (M aureum SB66) [µg/mL] |
| --- | --- | --- | --- | --- | --- | --- |
| CCN(CC)C(=S)Sc1c(C#N)cc([N+](=O)[O-])cc1[N+](=O)[O-] [Subst. Nr. 3, 3,5-dinitro-2-diethyldithiocarbamoylbenzonitril] | 3.12 (≈ 9.17 µM) | 6.25 (≈ 18.4 µM) | 12.5 (≈ 36.7 µM) | 6.25 (≈ 18.4 µM) | 3.12 (≈ 9.17 µM) | 12.5 (≈ 36.7 µM) |
| CN(C)c1ncnc(SC(=S)N2CCCC2)c1[N+](=O)[O-] [Subst. Nr. 13, 4-dimethylamino-6-tetramethylenedithiocarbamoyl-5-nitropyrimidine] | 1.56 (≈ 4.98 µM) | 1.56 (≈ 4.98 µM) | 3.12 (≈ 9.96 µM) | 1.56 (≈ 4.98 µM) | 3.12 (≈ 9.96 µM) | 3.12 (≈ 9.96 µM) |
| CN(C)C(=S)Sc1c(C#N)cc([N+](=O)[O-])cc1[N+](=O)[O-] [Subst. Nr. 9, 3,5-dinitro-2-dimethyldithiocarbamoylbenzonitrile] | 3.12 (≈ 9.99 µM) | 0.4 (≈ 1.28 µM) | 3.12 (≈ 9.99 µM) | 6.25 (≈ 20 µM) | 0.4 (≈ 1.28 µM) | 1.56 (≈ 4.99 µM) |
| NC(=O)c1cc([N+](=O)[O-])cc([N+](=O)[O-])c1SC(=S)N1CCCCCC1 [Subst. Nr. 16, 3,5-dinitro-2-hexamethylenedithiocarbamoylbenzamide] | 0.1 (≈ 0.26 µM) | 12.5 (≈ 32.5 µM) | 6.25 (≈ 16.3 µM) | 0.8 (≈ 2.08 µM) | 6.25 (≈ 16.3 µM) | 6.25 (≈ 16.3 µM) |
| 4-isopropylamino-6-diethyldithiocarbamoyl-5-nitropyrimidine [Subst. Nr. 1] | 3.12 | 25 | 12.5 | 25 | 3.12 | 25 |
| CCOc1nc(C)nc(SC(=S)N2CCCC2)c1[N+](=O)[O-] [Subst. Nr. 10, 4-ethoxy-2-methyl-6-tetramethylenedithiocarbamoyl-5-nitropyrimidine] | 12.5 (≈ 38.1 µM) | 0.8 (≈ 2.44 µM) | 12.5 (≈ 38.1 µM) | 50 (≈ 152 µM) | 3.12 (≈ 9.5 µM) | 25 (≈ 76.1 µM) |
| COc1ncnc(SC(=S)N2CCCC2)c1[N+](=O)[O-] [Subst. Nr. 15, 4-methoxy-6-tetramethylenedithiocarbamoyl-5-nitropyrimidine] | 0.8 (≈ 2.66 µM) | 3.12 (≈ 10.4 µM) | 3.12 (≈ 10.4 µM) | 1.56 (≈ 5.19 µM) | 3.12 (≈ 10.4 µM) | 1.56 (≈ 5.19 µM) |
| CCN(CC)C(=S)Sc1ncnc(NC)c1[N+](=O)[O-] [Subst. Nr. 4, 4-methylamino-6-diethyldithiocarbamoyl-5-nitropyrimidine] | 1.56 (≈ 5.18 µM) | 1.56 (≈ 5.18 µM) | 6.25 (≈ 20.7 µM) | 6.25 (≈ 20.7 µM) | 0.78 (≈ 2.59 µM) | 6.24 (≈ 20.7 µM) |
| CCN(CC)C(=S)Sc1ncnc(N(C)O)c1[N+](=O)[O-] [Subst. Nr. 5, 4-methylhydroxyamino-6-diethyldithiocarbamoyl-5-nitropyrimidine] | 3.12 (≈ 9.83 µM) | 3.12 (≈ 9.83 µM) | 6.25 (≈ 19.7 µM) | 6.25 (≈ 19.7 µM) | 1.56 (≈ 4.91 µM) | 12.5 (≈ 39.4 µM) |
| O=[N+]([O-])c1cnc(SC(=S)N2CCCC2)c([N+](=O)[O-])c1 [Subst. Nr. 18, 3,5-dinitro-2-tetramethylenedithiocarbamoylpyridine] | 3.12 (≈ 9.93 µM) | 12.5 (≈ 39.8 µM) | 6.25 (≈ 19.9 µM) | 3.12 (≈ 9.93 µM) | 1.56 (≈ 4.96 µM) | 3.12 (≈ 9.93 µM) |
| CN(C)C(=S)Sc1ncnc(N(C)C)c1[N+](=O)[O-] [Subst. Nr. 8, 4-dimethylamino-6-dimethyldithiocarbamoyl-5-nitropyrimidine] | 3.12 (≈ 10.9 µM) | 6.52 (≈ 22.7 µM) | 12.5 (≈ 43.5 µM) | 12.5 (≈ 43.5 µM) | 3.12 (≈ 10.9 µM) | 6.25 (≈ 21.7 µM) |
| COc1ncnc(SC(=S)N(C)C)c1[N+](=O)[O-] [Subst. Nr. 14, 4-methoxy-6-dimethyldithiocarbamoyl-5-nitropyrimidine] | 3.12 (≈ 11.4 µM) | 3.12 (≈ 11.4 µM) | 3.12 (≈ 11.4 µM) | 0.8 (≈ 2.92 µM) | 6.25 (≈ 22.8 µM) | 0.8 (≈ 2.92 µM) |
| CCCOc1ncnc(SC(=S)N(C)C)c1[N+](=O)[O-] [Subst. Nr. 11, 4-propoxy-6-dimethyldithiocarbamoyl-5-nitropyrimidine] | 0.8 (≈ 2.65 µM) | 0.8 (≈ 2.65 µM) | 6.25 (≈ 20.7 µM) | 1.56 (≈ 5.16 µM) | 0.8 (≈ 2.65 µM) | 1.56 (≈ 5.16 µM) |
| NC(=O)c1cc([N+](=O)[O-])cc([N+](=O)[O-])c1SC(=S)N1CCCC1 [Subst. Nr. 17, 3,5-dinitro-2-tetramethylenedithiocarbamoylbenzamide] | 0.4 (≈ 1.12 µM) | 12.5 (≈ 35.1 µM) | 50 (≈ 140 µM) | 6.25 (≈ 17.5 µM) | 25 (≈ 70.1 µM) | 6.25 (≈ 17.5 µM) |
| CNc1ncnc(SC(=S)N(C)C)c1[N+](=O)[O-] [Subst. Nr. 7, 4-methylamino-6-dimethyldithiocarbamoyl-5-nitropyrimidine] | 3.12 (≈ 11.4 µM) | 3.12 (≈ 11.4 µM) | 12.5 (≈ 45.7 µM) | 6.25 (≈ 22.9 µM) | 1.56 (≈ 5.71 µM) | 6.25 (≈ 22.9 µM) |
| CCOc1nc(C)nc(SC(=S)N(CC)CC)c1[N+](=O)[O-] [Subst. Nr. 6, 4-ethoxy-2-methyl-6-diethyldithiocarbamoyl-5-nitropyrimidine] | 3.12 (≈ 9.44 µM) | 3.12 (≈ 9.44 µM) | 12.5 (≈ 37.8 µM) | 12.5 (≈ 37.8 µM) | 3.12 (≈ 9.44 µM) | 12.5 (≈ 37.8 µM) |
| CCN(CC)C(=S)Sc1ncnc(NC2CC2)c1[N+](=O)[O-] [Subst. Nr. 2, 4-cyclopropylamino-6-diethyldithiocarbamoyl-5-nitropyrimidine] | 3.12 (≈ 9.53 µM) | 3.12 (≈ 9.53 µM) | 6.25 (≈ 19.1 µM) | 6.25 (≈ 19.1 µM) | 1.56 (≈ 4.76 µM) | 12.5 (≈ 38.2 µM) |
| CNc1ncnc(SC(=S)N2CCCC2)c1[N+](=O)[O-] [Subst. Nr. 12, 4-methylamino-6-tetramethylenedithiocarbamoyl-5-nitropyrimidine] | 0.8 (≈ 2.67 µM) |  | 3.12 (≈ 10.4 µM) | 0.8 (≈ 2.67 µM) |  | 1.56 (≈ 5.21 µM) |
